According to paper PMC13586173, “Synthetic cannabinoid receptor agonists inhibit the cardiac voltage-gated potassium channel hERG” (Acta Pharmacologica Sinica, 2026):

target: hERG (KV11.1) (Homo sapiens, UniProt Q12809); assay: Automated planar patch-clamp (APC, QPatch II 48), voltage-ladder protocol, CHO cells stably expressing human hERG; details: not given
Text: To assess the effect of a large set of SCRAs on hERG (see SI Table I and SI Fig. S1 for a list of the 36 included SCRAs and corresponding structures), we used the automated planar patch-clamp (APC) technique on mammalian Chinese hamster ovary (CHO) cells stably expressing human hERG. […] We employed a voltage-ladder protocol to obtain information on SCRA effects on the channel’s voltage dependence of activation (V50) and maximal conductance (Gmax) (both determined from Boltzmann fits of the instantaneous tail currents; see Methods for details).
Stably expressing cell lines “CHO-hERG DUO” (here referred to as hERG; gene: KCNH2) and “CHO-KVLQT1/mink” (here referred to as KV7.1/KCNE1; gene: KCNQ1/KCNE1), (B’SYS GmBH, Witterswil, Switzerland) were used to study whole-cell K^+ currents on a QPatch II 48 APC system (Sophion Bioscience A/S, Ballerup, Denmark). Cell culture and passaging were performed in accordance with standard operating procedures. Cells were harvested in serum-free medium with Detachin^TM (Genlantis, CA, USA) immediately prior to experiments. For MPC on transient cell lines, CHO-K1 CCL-61 cells (ATCC, Manassas, VA, USA) were cultured in Ham’s F-12 medium supplemented with 10% fetal bovine serum (FBS) and 100 U/mL penicillin–100 µg/mL streptomycin (Gibco, Thermo Fisher Scientific, Waltham, MA, USA). Transfection was carried out using JetOPTIMUS® reagent (Polyplus, Strasbourg, France) according to the manufacturer’s protocol. Briefly, 80,000 cells were seeded per well in a 12-well plate and transfected with 300 ng of pcDNA3-GFP plasmid, 700 ng of pcDNA3-hERG plasmid with either the wild-type or mutant channels (S624A, S649A, or Y652A), and […] of JetOPTIMUS. After 8 h, cells were detached and reseeded at a density of 30,000 cells per well onto several poly-D-lysine-coated glass coverslips placed in a 12-well plate. For the CB1 receptor activity assay, the AequoScreen® recombinant Chinese hamster ovary (CHO) K1 cell line, stably expressing the human CB1 receptor (ES-110-A), was used (Revvity, Sollentuna, Sweden).
Automated patch-clamp recordings were performed at 22 °C. Freshly harvested cell suspensions (2–3 million cells/mL) were prepared for experiments by the QPatch II 48 automated cell preparation unit. Cells were centrifuged for 150 s at 150 × g and washed twice with the extracellular recording solution. Cells were handled by the integrated pipetting robot and added to the 48 experiment sites on the planar patch-clamp consumable QPlate. Each experiment site contained an individual pair of recording electrodes and a silicon/glass biochip embedded in the flow channels. Single-cell patch recordings (n = 1 is defined as one single-cell patch) and population patch recordings (up to 10 cells per well, n = 1 is defined as one population patch) were performed for hERG and for KV7.1/KCNE1, respectively. Cells were applied, positioned and sealed to the patch holes by a mild suction protocol; whole-cell access was then achieved by a stronger suction pulse.
The intracellular solution contained (in mM): 100 KCl, 4.3 CaCl2, 1.4 MgCl2, 25/10 KOH/EGTA, 24 KF, 10 HEPES, and 4 Mg-ATP (hERG) or 4 Na-ATP (KV7.1/KCNE1). […] The compounds were pre-diluted in DMSO, and the final concentration of DMSO (0.3%) was equal in all recording solutions to control for vehicle effects. The compounds made no contact with plastics following dilution in extracellular solution.
An overview of experimental conditions is provided in SI Table VII, Square voltage pulses in a voltage ladder protocol were used to study current/voltage (I(V)) relationships. Each voltage protocol was first run three times in the presence of vehicle (extracellular solution supplemented with 0.3% DMSO), the 3rd serving as the baseline. Voltage protocols were repeated in the presence of 4 cumulatively rising concentrations of test compound, followed by application of vehicle for recovery.

Sequence of hERG (KV11.1) (Q12809 whole entry): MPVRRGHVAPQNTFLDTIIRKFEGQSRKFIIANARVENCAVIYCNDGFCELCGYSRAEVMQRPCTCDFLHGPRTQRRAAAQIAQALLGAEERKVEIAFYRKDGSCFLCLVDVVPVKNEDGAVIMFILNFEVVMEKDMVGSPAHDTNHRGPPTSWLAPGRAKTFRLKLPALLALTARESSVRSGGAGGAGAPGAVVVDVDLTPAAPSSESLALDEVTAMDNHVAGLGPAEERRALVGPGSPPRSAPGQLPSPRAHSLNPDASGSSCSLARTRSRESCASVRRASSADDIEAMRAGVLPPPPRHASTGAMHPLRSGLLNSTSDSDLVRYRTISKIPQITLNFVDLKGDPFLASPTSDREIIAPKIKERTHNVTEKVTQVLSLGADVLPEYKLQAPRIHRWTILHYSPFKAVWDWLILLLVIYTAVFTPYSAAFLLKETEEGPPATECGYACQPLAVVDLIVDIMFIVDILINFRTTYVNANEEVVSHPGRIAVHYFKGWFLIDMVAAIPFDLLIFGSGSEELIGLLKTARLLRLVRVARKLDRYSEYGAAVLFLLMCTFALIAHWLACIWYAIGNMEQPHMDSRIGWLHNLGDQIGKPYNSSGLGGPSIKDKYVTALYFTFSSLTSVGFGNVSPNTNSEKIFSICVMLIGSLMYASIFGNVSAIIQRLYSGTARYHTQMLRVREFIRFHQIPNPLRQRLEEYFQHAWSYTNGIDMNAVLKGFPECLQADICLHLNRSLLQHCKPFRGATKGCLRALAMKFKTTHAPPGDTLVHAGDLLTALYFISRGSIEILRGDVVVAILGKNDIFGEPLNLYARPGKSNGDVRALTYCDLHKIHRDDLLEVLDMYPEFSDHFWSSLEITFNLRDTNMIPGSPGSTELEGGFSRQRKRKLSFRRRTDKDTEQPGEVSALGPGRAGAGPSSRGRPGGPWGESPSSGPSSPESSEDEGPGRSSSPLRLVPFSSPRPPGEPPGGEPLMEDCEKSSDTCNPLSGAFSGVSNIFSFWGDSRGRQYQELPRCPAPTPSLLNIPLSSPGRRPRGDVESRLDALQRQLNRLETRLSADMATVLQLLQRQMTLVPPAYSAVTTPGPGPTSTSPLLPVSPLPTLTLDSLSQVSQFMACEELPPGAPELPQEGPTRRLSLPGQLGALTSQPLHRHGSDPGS

Compound | IC50 [µM]
COC(=O)C(NC(=O)c1cn(CC2CCCCC2)c2ccccc12)C(C)(C)C (centres unmarked) [MDMB-CHMICA] | 3.2
CCCCCCn1nc(C(=O)NC(C(N)=O)C(C)(C)C)c2ccccc21 (centres unmarked) [ADB-HEXINACA] | 15.8
CCCCn1nc(C(=O)NC(C(=O)OC)C(C)(C)C)c2cc(Br)ccc21 (centres unmarked) [MDMB-5'Br-BUTINACA] | 6.2
CCCCCn1cc(C(=O)c2cccc3ccccc23)c2ccccc21 [JWH-018] | 17.3
C=CCCCN1C(=O)/C(=N\NC(=O)c2ccccc2)c2ccccc21 [BZO-4en-POXIZID] | 3.9

same assay, conditions: * Greatest efficacy achieved with a concentration between 10 and 30 µM (no fit); 1 = no reduction of Gmax

Compound | hERG channel Efficacy (max reduction in Gmax) Gmin, marked *
CCCCCN1C(=O)/C(=N\NC(=O)c2ccccc2)c2ccccc21 [BZO-POXIZID] | 0.79
CCCCCn1cc(C(=O)c2ccc(CC)c3ccccc23)c2ccccc21 [JWH-210] | 0.89

same assay, conditions: APC concentration-response, 1.11 to 30 µM

Compound | effect on Gmax of hERG (in words)
C=CCCCn1nc(C(=O)NC(C(N)=O)C(C)(C)C)c2ccccc21 (centres unmarked) [ADB-4en-PINACA] | no or limited effects
CCCCCN1C(=O)/C(=N\NC(=O)c2ccccc2)c2ccccc21 [BZO-POXIZID] | non-inhibitor
CC(C)(C)[C@H](NC(=O)c1n[nH]c2ccc(Br)cc12)C(N)=O [ADB-5'Br-INACA] | no or limited effects
COC(=O)C(NC(=O)c1cn(CC2CCCCC2)c2ccccc12)C(C)(C)C (centres unmarked) [MDMB-CHMICA] | clear inhibiting Gmax effects on hERG
C=CCCCN1C(=O)/C(=N\NC(=O)c2ccccc2)c2ccccc21 [BZO-4en-POXIZID] | concentration-dependent inhibitory effects on Gmax

same assay, conditions: best fit; 1 = no reduction of Gmax, 0 = complete reduction; APC, 22 °C

Compound | hERG channel Efficacy (max reduction in Gmax) Gmin
C=CCCCn1nc(C(=O)NC(C(N)=O)C(C)(C)C)c2ccccc21 (centres unmarked) [ADB-4en-PINACA] | 0.52
CC(C)(C)[C@H](NC(=O)c1n[nH]c2ccc(Br)cc12)C(N)=O [ADB-5'Br-INACA] | 0.70
COC(=O)C(NC(=O)c1cn(CC2CCCCC2)c2ccccc12)C(C)(C)C (centres unmarked) [MDMB-CHMICA] | 0.55
CCCCCCn1nc(C(=O)NC(C(N)=O)C(C)(C)C)c2ccccc21 (centres unmarked) [ADB-HEXINACA] | 0.037
CCCCn1nc(C(=O)NC(C(=O)OC)C(C)(C)C)c2cc(Br)ccc21 (centres unmarked) [MDMB-5'Br-BUTINACA] | 0.67
CCCCCn1cc(C(=O)c2cccc3ccccc23)c2ccccc21 [JWH-018] | 0.57
C=CCCCN1C(=O)/C(=N\NC(=O)c2ccccc2)c2ccccc21 [BZO-4en-POXIZID] | 0.64

same assay, conditions: experimentally observed effect of 10 µM, used in ORd simulation

Compound | remaining IKr (hERG Gmax) [%]
CCCCCCn1nc(C(=O)NC(C(N)=O)C(C)(C)C)c2ccccc21 (centres unmarked) [ADB-HEXINACA] | 63

same assay, conditions: read-out: hERG channel Potency IC50 (Gmax reduction); APC, 22 °C, best fit

Compound | IC50 [µM]
C=CCCCn1nc(C(=O)NC(C(N)=O)C(C)(C)C)c2ccccc21 (centres unmarked) [ADB-4en-PINACA] | 9.1
CC(C)(C)[C@H](NC(=O)c1n[nH]c2ccc(Br)cc12)C(N)=O [ADB-5'Br-INACA] | 24.5

target: KV7.1/KCNE1 (Homo sapiens, UniProt P51787); assay: Automated patch-clamp (APC, population patch), CHO cells stably expressing human KV7.1/KCNE1; format: cell-based; details: not given
Sequence (P51787 whole entry): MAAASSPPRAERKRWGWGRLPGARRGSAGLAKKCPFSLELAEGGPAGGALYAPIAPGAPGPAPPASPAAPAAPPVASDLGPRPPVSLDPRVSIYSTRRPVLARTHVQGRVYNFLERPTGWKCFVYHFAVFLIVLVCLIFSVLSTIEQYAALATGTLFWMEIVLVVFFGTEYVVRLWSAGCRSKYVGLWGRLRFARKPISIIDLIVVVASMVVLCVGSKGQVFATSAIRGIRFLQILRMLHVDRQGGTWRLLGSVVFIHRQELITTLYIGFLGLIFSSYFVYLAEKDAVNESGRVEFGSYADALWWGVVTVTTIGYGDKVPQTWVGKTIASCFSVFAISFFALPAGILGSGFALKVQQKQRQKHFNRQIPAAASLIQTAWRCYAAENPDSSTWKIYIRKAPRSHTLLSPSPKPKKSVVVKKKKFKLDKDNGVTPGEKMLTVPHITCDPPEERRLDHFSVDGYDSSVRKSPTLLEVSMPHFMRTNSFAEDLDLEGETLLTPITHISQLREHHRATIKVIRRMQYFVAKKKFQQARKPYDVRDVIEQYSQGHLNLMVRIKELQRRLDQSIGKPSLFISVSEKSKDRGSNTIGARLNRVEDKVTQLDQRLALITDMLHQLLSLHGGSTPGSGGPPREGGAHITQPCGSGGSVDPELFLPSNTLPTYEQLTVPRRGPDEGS
Description: Both hERG and KV7.1/KCNE1 contribute to cardiomyocyte repolarization (Fig. 1g). Inhibition of KV7.1/KCNE1 alone can be proarrhythmic. Moreover, under conditions with impaired hERG function, upregulation of KV7.1/KCNE1 has been proposed to partially compensate for the loss of hERG [38, 39]. […] To assess if SCRAs also affect KV7.1/KCNE1, we used mammalian CHO cells stably expressing human KV7.1/KCNE1. […] At 10 µM, 7 of the SCRAs caused a significant positive shift in V50 (Fig. 5e), with the largest shift induced by MDMB-[…] (ΔV50 = +10.3 ± 1.6 mV).
Automated patch-clamp recordings were performed at 22 °C.
For the KV7.1/KCNE1 voltage ladder protocol (SI Table VII) the solutions were present for 60 s before recording started. KV7.1/KCNE1 cells were kept at a holding voltage of −90 mV, with brief hyperpolarizing steps to −100 mV for 540 ms (to calculate ohmic leakage). […] The time between compound application and the first voltage protocol was 60 s. Time between sweeps was 15 s. The voltage ladder protocol was executed every 220 s.
For Gmax (rel.), N was set to –1. For ΔV50, N was set to 1.

Compound | IC50 [µM]
CCCCCCn1nc(C(=O)NC(C(N)=O)C(C)(C)C)c2ccccc21 (centres unmarked) [ADB-HEXINACA] | 1.99

same assay, conditions: * Greatest efficacy achieved with a concentration between 10 and 30 µM (no fit)

Compound | KV7.1/KCNE1 channel Efficacy (max reduction in Gmax) Gmin, marked *
C=CCCCn1nc(C(=O)NC(C(N)=O)C(C)(C)C)c2ccccc21 (centres unmarked) [ADB-4en-PINACA] | 1.13
CCCCCN1C(=O)/C(=N\NC(=O)c2ccccc2)c2ccccc21 [BZO-POXIZID] | 0.83
CC(C)(C)[C@H](NC(=O)c1n[nH]c2ccc(Br)cc12)C(N)=O [ADB-5'Br-INACA] | 1.04
COC(=O)C(NC(=O)c1cn(CC2CCCCC2)c2ccccc12)C(C)(C)C (centres unmarked) [MDMB-CHMICA] | 0.78
CCCCn1nc(C(=O)NC(C(=O)OC)C(C)(C)C)c2cc(Br)ccc21 (centres unmarked) [MDMB-5'Br-BUTINACA] | 0.60
CCCCCn1cc(C(=O)c2cccc3ccccc23)c2ccccc21 [JWH-018] | 1.01
C=CCCCN1C(=O)/C(=N\NC(=O)c2ccccc2)c2ccccc21 [BZO-4en-POXIZID] | 0.79

same assay, conditions: APC

Compound | effect on KV7.1/KCNE1 (in words)
CCCCn1nc(C(=O)NC(C(=O)OC)C(C)(C)C)c2cc(Br)ccc21 (centres unmarked) [MDMB-5'Br-BUTINACA] | both reduced Gmax and shifted V50 towards more positive voltages

same assay, conditions: best fit; 1 = no reduction of Gmax, 0 = complete reduction

Compound | KV7.1/KCNE1 channel Efficacy (max reduction in Gmax) Gmin
CCCCCn1cc(C(=O)c2ccc(CC)c3ccccc23)c2ccccc21 [JWH-210] | 0
CCCCCCn1nc(C(=O)NC(C(N)=O)C(C)(C)C)c2ccccc21 (centres unmarked) [ADB-HEXINACA] | 0.41

same assay, conditions: experimentally observed effect of 10 µM, used in ORd simulation

Compound | remaining IKs (KV7.1/KCNE1 Gmax) [%]
CCCCCCn1nc(C(=O)NC(C(N)=O)C(C)(C)C)c2ccccc21 (centres unmarked) [ADB-HEXINACA] | 52

target: T1, human CB1 receptor (Homo sapiens, UniProt P21554); assay: AequoScreen intracellular calcium release assay, CHO-K1 cells stably expressing CB1; format: cell-based; details: CB1 receptor Potency EC50, normalized to median EC50 of JWH-018; n ≥ 3 (JWH-030 n = 2)
T1 construct: host or cells: CHO-K1 stably expressing CB1, apoaequorin and Gα16
T1 sequence (P21554 whole entry): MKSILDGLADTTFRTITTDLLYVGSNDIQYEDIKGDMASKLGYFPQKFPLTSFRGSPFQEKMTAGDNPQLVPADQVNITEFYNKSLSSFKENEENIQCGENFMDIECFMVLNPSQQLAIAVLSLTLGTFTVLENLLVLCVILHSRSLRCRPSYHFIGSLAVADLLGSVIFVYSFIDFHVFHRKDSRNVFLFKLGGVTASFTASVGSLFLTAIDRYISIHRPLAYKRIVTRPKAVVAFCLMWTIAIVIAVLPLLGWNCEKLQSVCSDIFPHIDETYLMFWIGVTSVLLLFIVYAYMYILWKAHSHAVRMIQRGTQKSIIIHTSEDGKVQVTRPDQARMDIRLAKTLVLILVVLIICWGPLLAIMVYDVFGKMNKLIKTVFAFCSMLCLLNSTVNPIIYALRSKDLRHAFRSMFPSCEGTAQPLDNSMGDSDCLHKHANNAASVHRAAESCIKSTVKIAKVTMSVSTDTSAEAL

Compound | EC50 [µM]
CCCCCN1C(=O)/C(=N\NC(=O)c2ccccc2)c2ccccc21 [BZO-POXIZID] | 0.349
COC(=O)C(NC(=O)c1cn(CC2CCCCC2)c2ccccc12)C(C)(C)C (centres unmarked) [MDMB-CHMICA] | 0.00307
CCCCCCn1nc(C(=O)NC(C(N)=O)C(C)(C)C)c2ccccc21 (centres unmarked) [ADB-HEXINACA] | 0.0394
CCCCCn1cc(C(=O)c2cccc3ccccc23)c2ccccc21 [JWH-018] | 0.035
C=CCCCN1C(=O)/C(=N\NC(=O)c2ccccc2)c2ccccc21 [BZO-4en-POXIZID] | 1.7

same assay, conditions: median CB1 EC50 value, median from 139 independent experiments run over many years

Compound | EC50 [µM]
CCCCCn1cc(C(=O)c2cccc3ccccc23)c2ccccc21 [JWH-018] | 0.035

same assay, conditions: normalized to maximum of JWH-018; n ≥ 3 (JWH-030 n = 2)

Compound | CB1 receptor Efficacy Emax [% JWH-018]
C=CCCCn1nc(C(=O)NC(C(N)=O)C(C)(C)C)c2ccccc21 (centres unmarked) [ADB-4en-PINACA] | 117
CCCCCN1C(=O)/C(=N\NC(=O)c2ccccc2)c2ccccc21 [BZO-POXIZID] | 108
CCCCCn1cc(C(=O)c2ccc(CC)c3ccccc23)c2ccccc21 [JWH-210] | 110
CC(C)(C)[C@H](NC(=O)c1n[nH]c2ccc(Br)cc12)C(N)=O [ADB-5'Br-INACA] | 111
COC(=O)C(NC(=O)c1cn(CC2CCCCC2)c2ccccc12)C(C)(C)C (centres unmarked) [MDMB-CHMICA] | 107
CCCCCCn1nc(C(=O)NC(C(N)=O)C(C)(C)C)c2ccccc21 (centres unmarked) [ADB-HEXINACA] | 117
CCCCn1nc(C(=O)NC(C(=O)OC)C(C)(C)C)c2cc(Br)ccc21 (centres unmarked) [MDMB-5'Br-BUTINACA] | 114
CCCCCn1cc(C(=O)c2cccc3ccccc23)c2ccccc21 [JWH-018] | 100
C=CCCCN1C(=O)/C(=N\NC(=O)c2ccccc2)c2ccccc21 [BZO-4en-POXIZID] | 112

same assay, conditions: normalized to median EC50 of JWH-018; n ≥ 3 (JWH-030 n = 2); read-out: CB1 receptor Potency EC50

Compound | EC50 [µM]
C=CCCCn1nc(C(=O)NC(C(N)=O)C(C)(C)C)c2ccccc21 (centres unmarked) [ADB-4en-PINACA] | 0.0174
CCCCCn1cc(C(=O)c2ccc(CC)c3ccccc23)c2ccccc21 [JWH-210] | 0.0101
CC(C)(C)[C@H](NC(=O)c1n[nH]c2ccc(Br)cc12)C(N)=O [ADB-5'Br-INACA] | 2.29

same assay, conditions: variability of CB1 EC50 over time, range over 139 independent experiments

Compound | EC50 [µM]
CCCCCn1cc(C(=O)c2cccc3ccccc23)c2ccccc21 [JWH-018] | 0.0137 to 0.0519
